# Assay results: patent publication US11884652B2, “Tetrazole derivatives as TRPA1 inhibitors” (Boehringer Ingelheim International GmbH, priority 2020, dated 2024)
# Experiments:
# [1] = Assay B: Microsomal clearance; format: in vitro ADME, human; conditions: pooled liver microsomes 1 mg/ml, 1 μM compound, NADPH, 37° C.; clearance as % of hepatic blood flow
# Protocol: Assay B: Microsomal Clearance:
# The metabolic degradation of the test compound is assayed at 37° C. with pooled liver microsomes. The final incubation volume of 100 μl per time point contains TRIS buffer pH 7.6 at RT (0.1 M), magnesium chloride (5 mM), microsomal protein (1 mg/ml) and the test compound at a final concentration of 1 μM.
# Following a short preincubation period at 37° C., the reactions are initiated by addition of beta-nicotinamide adenine dinucleotide phosphate, reduced form (NADPH, 1 mM) and terminated by transferring an aliquot into solvent after different time points (0, 5, 15, 30, 60 min). Additionally, the NADPH-independent degradation is monitored in incubations without NADPH, terminated at the last time point. The [%] remaining test compound after NADPH independent incubation is reflected by the parameter c(control) (metabolic stability). The quenched incubations are pelleted by centrifugation (10000 g, 5 min).
# An aliquot of the supernatant is assayed by LC-MS/MS for the amount of parent compound. The half-life (t½ INVITRO) is determined by the slope of the semilogarithmic plot of the concentration-time profile.
# The intrinsic clearance (CL_[…]) is calculated by considering the amount of protein in the incubation: CL_[…] [μl/min/mg protein]=(Ln 2/(half-life [min]*protein content [mg/ml]))*1000 CL_[…]_INVIVO [ml/min/kg]=(CL_[…] [μL/min/mg protein]×MPPGL [mg protein/g liver]×liver factor [g/kg bodyweight])/1000 Qh[%]=CL[ml/min/kg]/hepatic blood flow [ml/min/kg])
# (§1) Hepatocellularity, human: 120×10e6 cells/g liver
# (§2) Liver factor, human: 25.7 g/kg bodyweight
# (§3) Blood flow, human: 21 ml/(min×kg)
# [2] = Assay C: Hepatocyte clearance; format: in vitro ADME, human; conditions: hepatocyte suspension, 1 μM compound, 6 h; predicted clearance as % of hepatic blood flow
# Protocol: Assay C: Hepatocyte Clearance
# The metabolic degradation of the test compound is assayed in a hepatocyte suspension. Hepatocytes (cryopreserved) are incubated in Dulbecco's modified eagle medium (supplemented with 3.5 μg glucagon/500 mL, 2.5 mg insulin/500 mL and 3.75 mg/500 mL hydrocortison) containing 5% or 50% species serum.
# The cells are incubated for six hours (incubator, orbital shaker) and samples ([…]) are taken at 0, 0.5, 1, 2, 4 and 6 hours. Samples are transferred into acetonitrile and pelleted by centrifugation (5 min). The supernatant is transferred to a new 96-deepwell plate, evaporated under nitrogen and resuspended.
# Decline of Parent Compound is Analyzed by HPLC-MS/MS
# CLint is calculated as follows CL_[…]=Dose/AUC=(C0/CD)/(AUD+clast/k)×1000/60. C0: initial concentration in the incubation [μM], CD: cell density of vital cells [10e6 cells/mL], AUD: area under the data [μM×h], clast: concentration of last data point [μM], k: slope of the regression line for parent decline [h−1].
# The calculated in vitro hepatic intrinsic clearance can be scaled up to the intrinsic in vivo hepatic Clearance and used to predict hepatic in vivo blood clearance (CL) by the use of a liver model (well stirred model). CL_[…]_INVIVO [ml/min/kg]=(CL_[…] [μL/min/10e6 cells]×hepatocellularity [10e6 cells/g liver]×liver factor [g/kg bodyweight])/1000 CL[ml/min/kg]=CL_[…]_INVIVO [ml/min/kg]×hepatic blood flow [ml/min/kg]/(CL_[…]_INVIVO [ml/min/kg]+hepatic blood flow [ml/min/kg]) Qh[%]=CL[ml/min/kg]/hepatic blood flow [ml/min/kg])
# as §1, §2, §3
# human TRPA1 ion channel = target: T1, human TRPA1 ion channel (Homo sapiens, UniProt O75762); assay: Assay A: TRPA1 assay (FLIPR, AITC-induced calcium, HEK293 cells); format: cell-based; conditions: read-out: hTRPA1 IC50
# T1 construct: host or cells: HEK293
# T1 sequence (O75762 whole entry): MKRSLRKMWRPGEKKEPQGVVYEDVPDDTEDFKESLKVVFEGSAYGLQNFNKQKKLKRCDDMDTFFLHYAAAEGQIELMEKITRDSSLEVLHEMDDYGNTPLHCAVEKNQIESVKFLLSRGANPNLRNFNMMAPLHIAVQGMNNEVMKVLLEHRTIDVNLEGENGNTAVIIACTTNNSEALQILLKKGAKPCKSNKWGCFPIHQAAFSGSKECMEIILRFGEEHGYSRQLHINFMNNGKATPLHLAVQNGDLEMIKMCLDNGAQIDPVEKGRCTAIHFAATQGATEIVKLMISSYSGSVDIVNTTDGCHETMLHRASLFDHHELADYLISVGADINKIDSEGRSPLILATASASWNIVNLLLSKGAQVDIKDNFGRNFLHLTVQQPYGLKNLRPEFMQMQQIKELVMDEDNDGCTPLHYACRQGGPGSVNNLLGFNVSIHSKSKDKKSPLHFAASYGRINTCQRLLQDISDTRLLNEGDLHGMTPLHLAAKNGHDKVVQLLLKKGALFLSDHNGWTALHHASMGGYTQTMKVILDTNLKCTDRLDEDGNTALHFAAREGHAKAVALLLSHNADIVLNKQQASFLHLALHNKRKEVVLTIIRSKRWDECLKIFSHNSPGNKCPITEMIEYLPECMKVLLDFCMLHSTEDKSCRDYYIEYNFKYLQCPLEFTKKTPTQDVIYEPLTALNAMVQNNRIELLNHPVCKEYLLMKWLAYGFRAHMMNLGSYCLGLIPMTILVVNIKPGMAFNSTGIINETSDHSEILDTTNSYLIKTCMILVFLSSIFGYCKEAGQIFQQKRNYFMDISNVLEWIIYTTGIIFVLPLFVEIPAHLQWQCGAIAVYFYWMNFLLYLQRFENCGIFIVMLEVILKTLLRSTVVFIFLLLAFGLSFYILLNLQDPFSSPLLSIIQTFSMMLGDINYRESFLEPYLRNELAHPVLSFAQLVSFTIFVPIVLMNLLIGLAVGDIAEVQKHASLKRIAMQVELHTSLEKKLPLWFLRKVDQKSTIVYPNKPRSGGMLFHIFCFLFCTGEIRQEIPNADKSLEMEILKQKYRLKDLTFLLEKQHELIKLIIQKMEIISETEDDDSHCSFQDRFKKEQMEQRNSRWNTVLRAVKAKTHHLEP
# Protocol: A human HEK293 cell line over-expressing the human TRPA1 ion channel (Perkin Elmer, Product No. AX-004-PCL) is used as a test system for compound efficacy and potency. Compound activity is determined by measuring the effect of compounds on intracellular calcium concentration induced by AITC (Allylisothiocyanat) agonism in a FLIPRtetra system (Molecular Devices).
# The cells are obtained as frozen cells in cryo-vials and stored until use at −150° C. Cells are grown in culture medium (MEM/EBSS medium with 10% FCS and 0.4 mg/ML Geneticin). […] For sub-culturing cells are detached from flasks by Versene. At the day before the assay, cells are detached, washed twice with medium (MEM/EBSS medium with 10% FCS) and 20000 cells in 20 μl/well are seeded to Poly D-Lysin biocoated 384-well plates (black, clear bottom, Cat. 356697) from Corning. Plates are incubated for 24 hours at 37° C./5% CO2 before use in the assay.
# The test compounds are dissolved in 100% DMSO at a concentration of 10 mM and in a first step diluted in DMSO to a concentration of 5 mM, followed by serial dilution steps in 100% DMSO. Dilution factor and number of dilution steps may vary according to needs. Typically 8 different concentrations by 1:5 dilutions are prepared, further intermediate dilutions (1:20) of the substances are carried out with HBSS/HEPES buffer (1×HEPES, Cat. 14065 from Gibco, 20 mM HEPES, Cat. 83264 from SIGMA, 0.1% BSA Cat. 11926 from Invitrogen, pH 7.4
# At the assay day cells are washed 3× with assay puffer, 20 μL buffer remaining in the wells after washing. 10 μL Ca6 kit (Cat. R8191 MolecularDevices) loading buffer in HBSS/HEPES is added to the cells and the plates are incubated with lid for 120 minutes at 37°/5% CO2. 10 μL of compound or controls in HBSS/HEPES buffer/5% DMSO from the intermediate dilution plate are carefully added to the wells. […] Finally 10 μL of the agonist AITC 50 μM dissolved in HBSS/HEPES buffer/0.05% DMSO (final concentration 10 μM) is added to the wells followed by an additional read on the FLIPRtetra device for 10 minutes. The area under the signal curve (AUC) after AITC addition is used for IC50/% inhibition calculations
# Data Evaluation and Calculation:
# Each assay microtiter plate contains wells with vehicle (1% DMSO) controls instead of compound as controls for AITC induced luminescence (100% CTL; high controls) and wells with vehicle controls without AITC as controls for non-specific changes in luminescence (0% CTL; low controls).
# The analysis of the data is performed by the calculation of the area under signal curve of the individual wells. Based on this values the % value for the measurement of each substance concentration is calculated (AUC(sample)−AUC(low))*100/(AUC(high)−AUC(low)) using MegaLab software (in house development). The IC50 values are calculated from the % control values using MegaLab software. Calculation: [y=(ad)/(1+(x/c)^b)+d], a=low value, d=high value; x=conc M; c=IC50 M; b=hill; y=% ctrl
SMILES,human LM [% Qh] [1],human Hepatocytes [% Qh] [2],IC50 (human TRPA1 ion channel)
CN1CCOCC1CNC(=O)c1cn(Cc2nnn(C[C@H](O)c3ccc(Cl)cc3)n2)c(=O)n(C)c1=O (stereo partly drawn) [Example 25],55 % Qh,42 % Qh,43 nM
Cn1ccnc1CNC(=O)c1cn(Cc2nnn(C[C@H](O)c3ccc(Cl)cc3)n2)c(=O)n(C)c1=O [Example 26],52 % Qh,21 % Qh,100 nM
Cn1c(=O)c(C(=O)NCCS(C)(=O)=O)cn(Cc2nnn(C[C@H](O)c3ccc(Cl)cc3)n2)c1=O [Example 28],<23 % Qh,<4 % Qh,186 nM
Cn1c(=O)c(C(=O)NCCn2ccnc2)cn(Cc2nnn(C[C@H](O)c3ccc(Cl)cc3)n2)c1=O [Example 29],53 % Qh,27 % Qh,229 nM
Cn1c(=O)c(C(=O)NCCn2cccn2)cn(Cc2nnn(C[C@H](O)c3ccc(Cl)cc3)n2)c1=O [Example 35],<23 % Qh,19 % Qh,33 nM

# More lines, now with the values ahead:
human LM [% Qh] [1],human Hepatocytes [% Qh] [2],IC50 (human TRPA1 ion channel),SMILES
<23 % Qh,17 % Qh,140 nM,CNC(=O)c1cn(Cc2nnn(C[C@H](O)c3ccc(Cl)cc3)n2)c(=O)n(C)c1=O [Example 27]
28 % Qh,9 % Qh,44 nM,Cn1c(=O)c(C(=O)NCCOC(F)(F)F)cn(Cc2nnn(C[C@H](O)c3ccc(Cl)cc3)n2)c1=O [Example 30]
<23 % Qh,4 % Qh,68 nM,Cn1c(=O)c(C(=O)NCC(F)(F)F)cn(Cc2nnn(C[C@H](O)c3ccc(Cl)cc3)n2)c1=O [Example 31]
52 % Qh,45 % Qh,92 nM,Cn1c(=O)c(C(=O)NCC2CC2)cn(Cc2nnn(C[C@H](O)c3ccc(Cl)cc3)n2)c1=O [Example 32]
57 % Qh,28 % Qh,116 nM,Cn1c(=O)c(C(=O)NCCF)cn(Cc2nnn(C[C@H](O)c3ccc(Cl)cc3)n2)c1=O [Example 33]
43 % Qh,44 % Qh,297 nM,CCNC(=O)c1cn(Cc2nnn(C[C@H](O)c3ccc(Cl)cc3)n2)c(=O)n(C)c1=O [Example 34]
